Literature values in patent US6241994A, “Solid TCMTB formulations” (Buckman Laboratories International, Inc., priority 1998, dated 2001).

Assays:
[1] = for pH above which the substance decomposes: decomposition at a pH above the value
[2] = unstable at temperatures greater than the value

SMILES | solubility in most of organic solvents (most of organic solvents) | stability in acidic systems ([1]; acidic systems, ambient temperature) | pH above which the substance decomposes [1] | temperature above which considered unstable [2] | solubility in water (in water)
N#CSCSC#N [MTC, methylene bisthiocyanate] | soluble | stable | above 7.5 | greater than 100 °C | 
N#CSCSc1nc2ccccc2s1 [TCMTB, 2-(thiocyanomethylthio)-benzothiazole] |  |  | above 8.0 |  | about 0.033 g/l
